In PubChem BioAssay AID1963971 (Molecular Pharmacology Branch, DTP, NCI, 2024):

System: 953936-095-R-J2-PDC spheroids with HUVEC/MSC, viability
Test: Anticancer human tumor 953936-095-R-J2-PDC patient-derived cervical squamous cell carcinoma cell line growth inhibition [PI3K]
Conditions: for IC50: curve of first compound; for viability, T/C: stronger effect = lower value
Summary of the method: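 Tumor cells grown as multi-cell spheroids with HUVEC endothelial cells and MSC fibroblast-like stroma were treated with targeted agents combined with inavolisib, alpelisib, duvelisib or copanlisib. Doses fell in half-log steps from near clinical Cmax, else from 10 microM. Viability was measured.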

[1] = second compound 0.0316 µM, first compound 0.0316 µM
[2] = second compound 0.0316 µM, first compound 0.1 µM
[3] = second compound 0.0316 µM, first compound 0.316 µM
[4] = second compound 0.0316 µM, first compound 1 µM
[5] = second compound 0.1 µM, first compound 0.0316 µM
[6] = second compound 0.1 µM, first compound 0.1 µM
[7] = second compound 0.1 µM, first compound 0.316 µM
[8] = second compound 0.1 µM, first compound 1 µM
[9] = second compound 0.316 µM, first compound 0.0316 µM
[10] = second compound 0.316 µM, first compound 0.1 µM
[11] = second compound 0.316 µM, first compound 0.316 µM
[12] = second compound 0.316 µM, first compound 1 µM
[13] = second compound 1 µM, first compound 0.0316 µM
[14] = second compound 1 µM, first compound 0.1 µM
[15] = second compound 1 µM, first compound 0.316 µM
[16] = second compound 1 µM, first compound 1 µM
[17] = second compound 3.16 µM, first compound 0.0316 µM
[18] = second compound 3.16 µM, first compound 0.1 µM
[19] = second compound 3.16 µM, first compound 0.316 µM
[20] = second compound 3.16 µM, first compound 1 µM
[21] = second compound 10 µM, first compound 0.0316 µM
[22] = second compound 10 µM, first compound 0.1 µM
[23] = second compound 10 µM, first compound 0.316 µM
[24] = second compound 10 µM, first compound 1 µM
[25] = second compound 0.0316 µM, first compound 3.16 µM
[26] = second compound 0.0316 µM, first compound 10 µM
[27] = second compound 0.1 µM, first compound 3.16 µM
[28] = second compound 0.1 µM, first compound 10 µM
[29] = second compound 0.316 µM, first compound 3.16 µM
[30] = second compound 0.316 µM, first compound 10 µM
[31] = second compound 1 µM, first compound 3.16 µM
[32] = second compound 1 µM, first compound 10 µM
[33] = second compound 3.16 µM, first compound 3.16 µM
[34] = second compound 3.16 µM, first compound 10 µM
[35] = second compound 10 µM, first compound 3.16 µM
[36] = second compound 10 µM, first compound 10 µM
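Note: spheroids exposed to compounds for seven days before read-out.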

`CCN1CCN(Cc2ccc(Nc3ncc(F)c(-c4cc(F)c5nc(C)n(C(C)C)c5c4)n3)nc2)CC1` + CC(Nc1ncnc2nc[nH]c12)c1cc2cccc(Cl)c2c(=O)n1-c1ccccc1 was tested, and the IC50 (second compound 0.0316 µM) was greater than 1000 nM, the IC50 (second compound 0.1 µM) was greater than 1000 nM and the IC50 (second compound 0.316 µM) was greater than 1000 nM. The IC50 (second compound 1 µM) was greater than 1000 nM, the IC50 (second compound 3.16 µM) was greater than 1000 nM and the IC50 (second compound 10 µM) was greater than 1000 nM. It also gave a viability, T/C (second compound 0.0316 µM, first compound 0.00316 µM) of 102%, a viability, T/C (second compound 0.0316 µM, first compound 0.01 µM) of 101% and a viability, T/C [1] of 96.1%. It also gave a viability, T/C [2] of 103%, a viability, T/C [3] of 87.5% and a viability, T/C [4] of 89.1%. It also gave a viability, T/C (second compound 0.1 µM, first compound 0.00316 µM) of 104%, a viability, T/C (second compound 0.1 µM, first compound 0.01 µM) of 106% and a viability, T/C [5] of 111%. The viability, T/C [6] was 93%, the viability, T/C [7] was 86% and the viability, T/C [8] was 81.3%. It also gave a viability, T/C (second compound 0.316 µM, first compound 0.00316 µM) of 100%, a viability, T/C (second compound 0.316 µM, first compound 0.01 µM) of 108% and a viability, T/C [9] of 103%. The viability, T/C [10] was 90.5%, the viability, T/C [11] was 83.8% and the viability, T/C [12] was 79.2%. It also gave a viability, T/C (second compound 1 µM, first compound 0.00316 µM) of 97%, a viability, T/C (second compound 1 µM, first compound 0.01 µM) of 97.7% and a viability, T/C [13] of 104%. It also gave a viability, T/C [14] of 82.9%, a viability, T/C [15] of 76% and a viability, T/C [16] of 74.2%. The viability, T/C (second compound 3.16 µM, first compound 0.00316 µM) was 87.8%, the viability, T/C (second compound 3.16 µM, first compound 0.01 µM) was 78.6% and the viability, T/C [17] was 81.8%. The viability, T/C [18] was 73.9%, the viability, T/C [19] was 71.1% and the viability, T/C [20] was 64%. The viability, T/C (second compound 10 µM, first compound 0.00316 µM) was 59.6%, the viability, T/C (second compound 10 µM, first compound 0.01 µM) was 57.2% and the viability, T/C [21] was 57.2%. For the same compound, the viability, T/C [22] was 62.1%, the viability, T/C [23] was 52.8% and the viability, T/C [24] was 49.8%.
`Cn1ncc(Cl)c1-c1cc(C(=O)NC(CN)Cc2cccc(F)c2)sc1Cl` (stereo unspecified) + CC(Nc1ncnc2nc[nH]c12)c1cc2cccc(Cl)c2c(=O)n1-c1ccccc1 showed an IC50 (second compound 0.0316 µM) of 630 nM, an IC50 (second compound 0.1 µM) of 617 nM and an IC50 (second compound 0.316 µM) of 547 nM. The IC50 (second compound 1 µM) was 490 nM, the IC50 (second compound 3.16 µM) was 467 nM and the IC50 (second compound 10 µM) was 146 nM. The viability, T/C [1] was 96.5%, the viability, T/C [2] was 90.2% and the viability, T/C [3] was 67.9%. The viability, T/C [4] was 36.9%, the viability, T/C [25] was 21.8% and the viability, T/C [26] was 12%. The viability, T/C [5] was 95.2%, the viability, T/C [6] was 90% and the viability, T/C [7] was 67%. For the same compound, the viability, T/C [8] was 37.5%, the viability, T/C [27] was 20% and the viability, T/C [28] was 14.9%. For the same compound, the viability, T/C [9] was 94.1%, the viability, T/C [10] was 81.6% and the viability, T/C [11] was 58.4%. It also gave a viability, T/C [12] of 40%, a viability, T/C [29] of 22.4% and a viability, T/C [30] of 12.6%. The viability, T/C [13] was 95.5%, the viability, T/C [14] was 83.5% and the viability, T/C [15] was 58.1%. The viability, T/C [16] was 36.3%, the viability, T/C [31] was 18.1% and the viability, T/C [32] was 13.5%. It also gave a viability, T/C [17] of 82.3%, a viability, T/C [18] of 77.8% and a viability, T/C [19] of 56.7%. For the same compound, the viability, T/C [20] was 34.4%, the viability, T/C [33] was 18% and the viability, T/C [34] was 8.95%. For the same compound, the viability, T/C [21] was 55.5%, the viability, T/C [22] was 54.5% and the viability, T/C [23] was 42.9%. It also gave a viability, T/C [24] of 30.5%, a viability, T/C [35] of 14.6% and a viability, T/C [36] of 5.78%.
`Cn1nccc1Nc1nccc(-c2ccn(C(CO)c3ccc(Cl)c(F)c3)c(=O)c2)n1` (stereo unspecified) + CC(Nc1ncnc2nc[nH]c12)c1cc2cccc(Cl)c2c(=O)n1-c1ccccc1 was tested, and the IC50 (second compound 0.0316 µM) was greater than 10000 nM, the IC50 (second compound 0.1 µM) was greater than 10000 nM and the IC50 (second compound 0.316 µM) was greater than 10000 nM. It also gave an IC50 (second compound 1 µM) greater than 10000 nM, an IC50 (second compound 3.16 µM) greater than 10000 nM and an IC50 (second compound 10 µM) greater than 10000 nM. It also gave a viability, T/C [1] of 90.7%, a viability, T/C [2] of 100% and a viability, T/C [3] of 92%. It also gave a viability, T/C [4] of 102%, a viability, T/C [25] of 88.3% and a viability, T/C [26] of 80.1%. The viability, T/C [5] was 94.3%, the viability, T/C [6] was 90.6% and the viability, T/C [7] was 91%. It also gave a viability, T/C [8] of 90.8%, a viability, T/C [27] of 88% and a viability, T/C [28] of 66%. It also gave a viability, T/C [9] of 98.2%, a viability, T/C [10] of 97.2% and a viability, T/C [11] of 91.6%. It also gave a viability, T/C [12] of 83.8%, a viability, T/C [29] of 75.6% and a viability, T/C [30] of 73.6%. It also gave a viability, T/C [13] of 102%, a viability, T/C [14] of 76.9% and a viability, T/C [15] of 95.9%. The viability, T/C [16] was 86.1%, the viability, T/C [31] was 81.4% and the viability, T/C [32] was 82.4%. The viability, T/C [17] was 74.6%, the viability, T/C [18] was 69.9% and the viability, T/C [19] was 70.7%. It also gave a viability, T/C [20] of 76.4%, a viability, T/C [33] of 68.8% and a viability, T/C [34] of 77.3%. It also gave a viability, T/C [21] of 53.7%, a viability, T/C [22] of 52.3% and a viability, T/C [23] of 57.4%. The viability, T/C [24] was 51.6%, the viability, T/C [35] was 51.1% and the viability, T/C [36] was 56.9%.
